Measurements taken from patent publication US10358427B2, “Modulators of indoleamine 2,3-dioxygenase” (GLAXOSMITHKLINE INTELLECTUAL PROPERTY DEVELOPMENT LIMITED, priority 2015, dated 2019).
Counter-ions that a name gives are not always drawn.

How the values were obtained:
[1] = molecular target: T1, indoleamine 2, 3-dioxygenase (IDO1) (Homo sapiens, UniProt P14902); experiment: HeLa IDOi assay (kynurenine detection via mass spectrometry); assay type: cell-based; design: human epithelial HeLa cells (CCL-2; host or cells: HeLa cells stimulated with human IFN-γ; settings: human epithelial HeLa cells stimulated with IFN-γ; kynurenine by mass spectrometry; 2 days incubation
Description: (§1) Compounds of the present invention were tested via high-throughput cellular assays utilizing detection of kynurenine via mass spectrometry and cytotoxicity as end-points. For the mass spectrometry and cytotoxicity assays, human epithelial HeLa cells (CCL-2; ATCC®, Manassas, Va.) were stimulated with human interferon-γ (IFN-γ) (Sigma-Aldrich Corporation, St. Louis, Mo.) to induce the expression of indoleamine 2, 3-dioxygenase (IDO1). Compounds with IDO1 inhibitory properties decreased the amount of kynurenine produced by the cells via the tryptophan catabolic pathway. Cellular toxicity due to the effect of compound treatment was measured using CellTiter-Glo® reagent (CTG) (Promega Corporation, Madison, Wis.), which is based on luminescent detection of ATP, an indicator of metabolically active cells.
(§2) In preparation for the assays, test compounds were serially diluted 3-fold in DMSO from a typical top concentration of 5 mM and plated at 0.5 μL in 384-well, polystyrene, clear bottom, tissue culture treated plates with lids (Greiner Bio-One, Kremsmünster, Austria) to generate 11-point dose response curves. Low control wells (0% kynurenine or 100% cytotoxicity) contained either 0.5 μL of DMSO in the presence of unstimulated (−IFN-γ) HeLa cells for the mass spectrometry assay or 0.5 μL of DMSO in the absence of cells for the cytotoxicity assay, and high control wells (100% kynurenine or 0% cytotoxicity) contained 0.5 μL of DMSO in the presence of stimulated (+IFN-γ) HeLa cells for both the mass spectrometry and cytotoxicity assays.
Frozen stocks of HeLa cells were washed and recovered in DMEM high glucose medium with HEPES (Thermo Fisher Scientific, Inc., Waltham, Mass.) supplemented with 10% v/v certified fetal bovine serum (FBS) (Thermo Fisher Scientific, Inc., Waltham, Mass.), and 1× penicillin-streptomycin antibiotic solution (Thermo Fisher Scientific, Inc., Waltham, Mass.). The cells were diluted to 100,000 cells/mL in the supplemented DMEM medium. 50 μL of either the cell suspension, for the mass spectrometry assay, or medium alone, for the cytotoxicity assay, were added to the low control wells, on the previously prepared 384-well compound plates, resulting in 5,000 cells/well or 0 cells/well respectively. IFN-γ was added to the remaining cell suspension at a final concentration of 10 nM, and 50 μL of the stimulated cells were added to all remaining wells on the 384-well compound plates. The plates, with lids, were then placed in a 37° C., 5% CO2 humidified incubator for 2 days.
(§3) Following incubation, the 384-well plates were removed from the incubator and allowed to equilibrate to room temperature for 30 minutes. For the cytotoxicity assay, CellTiter-Glo® was prepared according to the manufacturer's instructions, and 10 μL were added to each plate well. After a twenty minute incubation at room temperature, luminescence was read on an EnVision® Multilabel Reader (PerkinElmer Inc., Waltham, Mass.). For the mass spectrometry assay, 10 μL of supernatant from each well of the compound-treated plates were added to 40 μL of acetonitrile, containing 10 μM of an internal standard for normalization, in 384-well, polypropylene, V-bottom plates (Greiner Bio-One, Kremsmünster, Austria) to extract the organic analytes. Following centrifugation at 2000 rpm for 10 minutes, 10 μL from each well of the acetonitrile extraction plates were added to 90 μL of sterile, distilled H2O in 384-well, polypropylene, V-bottom plates for analysis of kynurenine and the internal standard on the RapidFire 300 (Agilent Technologies, Santa Clara, Calif.) and 4000 QTRAP MS (SCIEX, Framingham, Mass.). MS data were integrated using Agilent Technologies' RapidFire Integrator software, and data were normalized for analysis as a ratio of kynurenine to the internal standard. […]

[2] = molecular target: T1, indoleamine 2, 3-dioxygenase (IDO1); experiment: PBMC IDOi assay (kynurenine detection via mass spectrometry); assay type: cell-based; settings: human PBMC stimulated with IFN-γ and LPS; kynurenine by mass spectrometry; 2 days incubation
Description: as §1, with “peripheral blood mononuclear” for “epithelial HeLa”, “(PBMC) (PB003F; AlICells®, Alameda, Calif.)” for “(CCL-2; ATCC®, Manassas, Va.)”, “Mo.) and lipopolysaccharide from Salmonella minnesota (LPS) (Invivogen, San Diego, Calif.)” for “Mo.)”
as §2, with “(−IFN-γ/−LPS) PBMCs” for “(−IFN-γ) HeLa cells”, “(+IFN-γ/+LPS) PBMCs” for “(+IFN-γ) HeLa cells”
Frozen stocks of PBMCs were washed and recovered in RPMI 1640 medium (Thermo Fisher Scientific, Inc., Waltham, Mass.) supplemented with 10% v/v heat-inactivated fetal bovine serum (FBS) (Thermo Fisher Scientific, Inc., Waltham, Mass.), and 1× penicillin-streptomycin antibiotic solution (Thermo Fisher Scientific, Inc., Waltham, Mass.). The cells were diluted to 1,000,000 cells/mL in the supplemented RPMI 1640 medium. 50 μL of either the cell suspension, for the mass spectrometry assay, or medium alone, for the cytotoxicity assay, were added to the low control wells, on the previously prepared 384-well compound plates, resulting in 50,000 cells/well or 0 cells/well respectively. IFN-γ and LPS were added to the remaining cell suspension at final concentrations of 100 ng/ml and 50 ng/ml respectively, and 50 μL of the stimulated cells were added to all remaining wells on the 384-well compound plates. The plates, with lids, were then placed in a 37° C., 5% CO2 humidified incubator for 2 days.
as §3, with “and 40” for “and 10”

T1 sequence (P14902 whole entry): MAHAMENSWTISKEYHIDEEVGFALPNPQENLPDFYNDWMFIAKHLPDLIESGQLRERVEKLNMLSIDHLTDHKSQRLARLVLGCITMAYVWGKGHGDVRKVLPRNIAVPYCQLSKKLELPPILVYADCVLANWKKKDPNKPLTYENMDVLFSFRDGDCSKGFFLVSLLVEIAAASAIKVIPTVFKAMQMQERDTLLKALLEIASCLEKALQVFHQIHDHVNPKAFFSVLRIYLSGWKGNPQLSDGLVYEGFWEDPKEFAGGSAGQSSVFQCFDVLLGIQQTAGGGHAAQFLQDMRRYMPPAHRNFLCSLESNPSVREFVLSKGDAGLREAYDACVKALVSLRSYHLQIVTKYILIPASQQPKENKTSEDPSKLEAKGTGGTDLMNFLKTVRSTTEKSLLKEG

| SMILES | EC50 [1] [nM] | EC50 [2] [nM] |
| --- | --- | --- |
| C/C=C/Cc1cc(-c2ccccc2-c2nnn[nH]2)cc(Nc2nc(Cl)ns2)c1OCCC [Example 15, (E)-N-(5-(But-2-en-1-yl)-4-propoxy-2′-(1H-tetrazol-5-yl)-[1,1′-biphenyl]-3-yl)-3-chloro-1,2,4-thiadiazol-5-amine, Trifluoroacetic acid Salt] | 126 | – |
| CC(C)CN(c1ccc(-c2ccccc2-c2nnn[nH]2)cc1Nc1nc(Cl)ns1)C1CCCCC1 [Example 10, N^3-(3-Chloro-1,2,4-thiadiazol-5-yl)-N^4-cyclohexyl-N^4-isobutyl-2′-(1H-tetrazol-5-yl)-[1,1′-biphenyl]-3,4-diamine] | 12.6 | – |
| CCCC(CCC)Oc1ccc(-c2ccccc2-c2nnn[nH]2)cc1Nc1nc2ccccc2o1 [Example 16, N-(4-(Heptan-4-yloxy)-2′-(1H-tetrazol-5-yl)-[1,1′-biphenyl]-3-yl)benzo[d]oxazol-2-amine] | 100 | 63.1 |
| CC(C)CN(c1ccc([C@H]2C[C@H]2C(=O)O)cc1Nc1nc(C(F)(F)F)ns1)C1CCCCC1 (relative stereo) [Example 6, cis-2-(4-(Cyclohexyl(isobutyl)amino)-3-((3-(trifluoromethyl)-1,2,4-thiadiazol-5-yl)amino)phenyl)cyclopropanecarboxylic acid, 2,2,2-trifluoroacetic acid] | 10 | 1.26 |
| Cc1cc(Nc2cc(-c3ccccc3-c3nn[nH]n3)ccc2N(CC(C)C)CC(C)C)no1 [Example 12, N^4,N^4-diisobutyl-N^3-(5-methylisoxazol-3-yl)-2′-(2H-tetrazol-5-yl)-[1,1′-biphenyl]-3,4-diamine] | 158 | 39.8 |
| CC(C)CN(c1ccc([C@H]2C[C@H]2C(=O)O)cc1Nc1nc2ccccc2o1)C1CCCCC1 (relative stereo) [Example 1, cis-2-(3-(Benzo[d]oxazol-2-ylamino)-4-(cyclohexyl(isobutyl)amino)phenyl)cyclopropanecarboxylic acid] | 100 | – |
| CC(C)CN(c1ccc([C@H]2C[C@H]2C(=O)O)cc1Nc1nc(Cl)ns1)C1CCCCC1 (relative stereo) [Example 4, cis-2-(3-((3-Chloro-1,2,4-thiadiazol-5-yl)amino)-4-(cyclohexyl(isobutyl)amino)phenyl)cyclopropanecarboxylic acid] | 10 | 1.26 |
| CC(C)CN(c1ccc([C@H]2C[C@H]2C(=O)O)cc1Nc1nc2ccccc2s1)C1CCCCC1 (relative stereo) [Example 3, cis-2-(3-(Benzo[d]thiazol-2-ylamino)-4-(cyclohexyl(isobutyl)amino)phenyl)cyclopropanecarboxylic acid] | 15.8 | – |
| CC(C)CN(c1ccc(-c2ccccc2-c2nnn[nH]2)cc1Nc1nc2ccccc2o1)C1CCCCC1 [Example 11, N^3-(Benzo[d]oxazol-2-yl)-N^4-cyclohexyl-N^4-isobutyl-2′-(1H-tetrazol-5-yl)-[1,1′-biphenyl]-3,4-diamine] | 25.1 | 15.8 |
| CC(C)CN(c1ccc([C@H]2C[C@H]2C(=O)O)cc1Nc1nc(-c2ccccc2)co1)C1CCCCC1 (relative stereo) [Example 5, cis-2-(4-(Cyclohexyl(isobutyl)amino)-3-((4-phenyloxazol-2-yl)amino)phenyl)cyclopropanecarboxylic acid] | 398 | – |

The next compounds have a lower EC50 [1] than those just listed; values first:

| EC50 [1] [nM] | EC50 [2] [nM] | SMILES |
| --- | --- | --- |
| 7.94 | – | CC(C)CN(c1ccc(-c2ccccc2C(=O)O)cc1Nc1nc2ccccc2[nH]1)C1CCCCC1 [Example 8, 3′-((1H-Benzo[d]imidazol-2-yl)amino)-4′-(cyclohexyl(isobutyl)amino)-[1,1′-biphenyl]-2-carboxylic acid] |
| 5.01 | 7.94 | CCCCc1cc(-c2ccccc2-c2nnn[nH]2)cc(Nc2nc3ccccc3o2)c1OCCC [Example 14, N-(5-Butyl-4-propoxy-2′-(1H-tetrazol-5-yl)-[1,1′-biphenyl]-3-yl)benzo[d]oxazol-2-amine] |
| 5.01 | – | CC(C)CN(c1ccc(C2CC2C(=O)O)cc1Nc1nc2ccccc2[nH]1)C1CCCCC1 (stereo not drawn) [Example 2, cis-2-(3-((1H-Benzo[d]imidazol-2-yl)amino)-4-(cyclohexyl(isobutyl)amino)phenyl)cyclopropanecarboxylic acid] |
| 2.51 | 1.26 | CC(C)CN(c1ccc(-c2ccccc2-c2nnn[nH]2)cc1Nc1nc(C(F)(F)F)ns1)C1CCCCC1 [Example 18, N^4-cyclohexyl-N^4-isobutyl-2′-(1H-tetrazol-5-yl)-N^3-(3-(trifluoromethyl)-1,2,4-thiadiazol-5-yl)-[1,1′-biphenyl]-3,4-diamine] |
| 2 | 1 | CC(C)CN(c1ccc(-c2ccccc2C(=O)O)cc1Nc1nc(C(F)(F)F)ns1)C1CCCCC1 [Example 17, 4′-(Cyclohexyl(isobutyl)amino)-3′((3-(trifluoromethyl)-1,2,4-thiadiazol-5-yl)amino)-[1,1′-biphenyl]-2-carboxylic acid] |
